# Results taken from patent US20260115185A1, “QUINOLINE DERIVATIVES WHICH ACT AS KAPPA-OPIOID RECEPTOR ANTAGONISTS” (The Scripps Research Institute, priority 2023, published 2026).
# pIC50: −log10 of the molar value.
# Assays:
# [1] = target: T1, kappa opioid receptor (KOR) (Homo sapiens, UniProt P41145); test: OPRKappa 1 Tango B-Arrestin Assay, antagonist mode (Tango OPRK1-bla U2OS cells, U50488 EC80 challenge); assay type: cell-based; settings: for Selectivity (MOR/KOR): Kappa selectivity, MOR IC50 / KOR IC50; for pIC50: antagonist mode, Tango OPRK1-bla U2OS cells, 6 nM U50488 challenge
# T1 construct: host or cells: U2OS (Tango OPRK1-bla U2OS)
# T1 sequence (P41145 whole entry): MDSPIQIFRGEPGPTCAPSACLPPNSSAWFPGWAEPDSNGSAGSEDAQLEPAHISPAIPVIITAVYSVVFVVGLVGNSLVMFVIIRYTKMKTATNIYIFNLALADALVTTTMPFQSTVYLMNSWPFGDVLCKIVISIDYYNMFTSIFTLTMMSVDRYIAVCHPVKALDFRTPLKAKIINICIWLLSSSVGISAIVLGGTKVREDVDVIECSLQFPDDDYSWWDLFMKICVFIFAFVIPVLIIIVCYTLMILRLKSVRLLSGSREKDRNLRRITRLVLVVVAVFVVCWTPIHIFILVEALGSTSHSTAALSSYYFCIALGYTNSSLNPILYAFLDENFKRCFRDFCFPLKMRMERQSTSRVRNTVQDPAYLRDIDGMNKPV
# Text: OPRKappa 1 Tango B-Arrestin Assay Protocol-Antagonist Mode. […] The assay uses Tango OPRK1-bla U2OS cells which express OPRK1 linked to a GAL4-VP16 transcription factor via a TEV protease site. The cells also express a β-arrestin/TEV protease fusion protein and a β-lactamase (BLA) reporter gene under the control of a UAS response element. Stimulation of the OPRK1 receptor by agonist causes migration of the β-arrestin fusion protein to the GPCR, and through proteolysis liberates GAL4-VP16 from the receptor. The liberated VP16-GAL4 migrates to the nucleus, where it induces transcription of the BLA gene. BLA expression is monitored by measuring fluorescence resonance energy transfer (FRET) of a cleavable, fluorogenic, cell-permeable BLA substrate. As designed, test compounds that are OPRK1 antagonists inhibit agonist activation and migration of the fusion protein, thus preventing proteolysis of GAL4-VP16 and BLA transcription, leading to no increase in well FRET. Compounds were tested in quadruplicate using a 10-point, 1:3 dilution series starting at a nominal concentration of 10 micromolar.
# The Tango OPRK1-U20S Dividing cell line was routinely cultured in 150 mm dishes at 37C, 5% CO2 and 95% relative humidity (RH).
# On Day 1 of the assay, 16,000 cells in 10 μL of assay media (DMEM-Glutamax—with Sodium Pyruvate, 10% fetal bovine serum stripped with charcoal-dextran (CDS), 25 mM HEPES, 0.1 mM non-essential amino acids, antibiotic mix (penicillin streptomycin)) were seeded into each well of a 384 Greiner 788092 black low profile, clear bottom, low volume plate, and incubated 16-24 hours at 37° C., 5% CO2 and 95% (RH).
# On Day 2, 50 nL of test compound in DMSO was added to the appropriate wells and plates were incubated for 30 min at 37° C. 5% CO2 and 95% (RH). Next was added 0.65 μL of commercially available U50488 OPRK1 agonist or DMSO in assay media: this EC80 Challenge consists of 0.6 μL of 111 nM U50488 to yield a final assay concentration of 6 nM). After incubation for 4 hours at 37° C., 5% CO2 and 95% (RH), 2.5 μL of LiveBLazer™FRET B/G (CCF4-AM) Mix (Soln.'s A,B,C,&D) was added to each well and incubated at room temperature in the dark for 2 hours. Well fluorescence was measured on Perkin Elmer's Envision using an Excitation filter 409 nm, Emission filters at 460 nm and […], bottom read.
# (§1) The Percent Inhibition was calculated from the median ratio as follows:
# • Tango™OPRK1-bla U20S Cells (Invitrogen K1576) • McCoy's 5A Medium, (Invitrogen 16600-082) • Dialyzed Fetal Bovine Serum, (Invitrogen 26400-036) • Non Essential Amino Acids 100× (Invitrogen part 11140-050) • HEPES (pH 7.3) 1M, (Invitrogen 15630-080) • Sodium Pyruvate 100× (Invitrogen 11360-070) • Penicillin Streptomycin, (Invitrogen 15640) • Trypsin 0.25% EDTA (Invitrogen 25200056) • DPBS without Calcium/Magnesium (Invitrogen 14190-136) • DMEM, High Glucose, GlutaMAX (Invitrogen 10569-010) • Fetal Bovine Serum, Charcoal Stripped (Invitrogen 12676-011) • DMSO Dry (Sigma D2650) • U50488 OPRK1 Agonist MW410.29 (Tocris 67198-19-0) • GNTI dihydrochloride OPRK1 Antagonist MW571.5 (Tocris 1282) • Nor-Binaltorphimine dihydrochloridc MW770.75 (Tocris 0347)
# LiveBLAzere™-FRET/BG Loading Mix: (Invitrogen K1030 (5 mg)), composed of Solutions A, B, C, and D: • Solution A (6 μL): LiveBLAzer™-FRET/BG Substrate (CCF4-AM) • Solution B (60 μL) • Solution C (904 μL) • Solution C (must add 250 μl of 1N NaOH to 45 mL of Solution C prior to use) • Solution D (30 μL) [Probinicid] (Sigma P8161) make 200 mM stock in NaOH—H2O.
# mu opioid receptor (MOR) = target: T2, mu opioid receptor (MOR) (Homo sapiens, UniProt P35372); test: OPRMu1 Discover X β-arrestin Assay, antagonist mode (U2OS cells, DAMGO EC80 challenge); assay type: cell-based
# T2 construct: host or cells: U2OS (Discover X OPRMu1-U2OS, PathHunter)
# T2 sequence (P35372 whole entry): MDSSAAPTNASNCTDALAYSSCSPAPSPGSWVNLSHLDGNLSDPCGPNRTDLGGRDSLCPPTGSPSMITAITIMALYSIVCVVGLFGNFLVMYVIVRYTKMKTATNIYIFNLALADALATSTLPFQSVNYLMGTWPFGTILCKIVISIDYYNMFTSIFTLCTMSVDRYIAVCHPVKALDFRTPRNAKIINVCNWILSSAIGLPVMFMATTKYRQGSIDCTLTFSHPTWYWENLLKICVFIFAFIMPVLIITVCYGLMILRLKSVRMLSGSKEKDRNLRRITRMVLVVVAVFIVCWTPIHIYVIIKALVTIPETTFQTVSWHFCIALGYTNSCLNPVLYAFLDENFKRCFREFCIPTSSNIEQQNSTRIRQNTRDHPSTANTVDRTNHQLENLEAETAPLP
# Text: OPRMu1 Discover X—β-arrestin Assay—Antagonist Mode. […] This assay evaluates the OPRMu1 activation in membrane recruitment of β-arrestin. In addition, the assay evaluates GPCR-β-arrestin proximity using low affinity fragment complementation of beta-galactosidase (beta-gal). The assay employs U20S cells, which express OPRMu1 fused to the complementary beta-gal fragment (enzyme acceptor). As designed, compounds that act as antagonists will prevent receptor activation resulting in reduced well luminescence. Compounds were tested in quadruplicate using a 10-point, 1:3 dilution series starting at a nominal concentration of 10 micromolar.
# The Discover X OPRMu1-U20S cell line was cultured in 150 mm dishes at 37° C., 5% CO2 and 95% relative humidity (RH).
# On Day 1 of the assay, 5000 cells in 20 μL of assay buffer (Discover X's Cell Plating Reagent 5) were seeded into each well of a 384 Corning 3570 standard white plate, and incubated 16-24 hours at 37° C., 5% CO2 and 95% RH.
# On Day 2, 100 nL of test compound in DMSO were added to the appropriate wells and the plates were then incubated for 30 min at 37° C. 5% CO2 and 95% RH. Next, 2.2 μL of DAMGO OPRMu1 agonist (commercially available) or DMSO in assay media. (The EC80 Challenge consists of 1.8 μL of 3.7 μM DAMGO, 0.4 μL of Assay Buffer, with a final assay concentration of 303 nM). After incubation for 3 hours at 37° C. 5% CO2, and 95% RH, 10 μL of Path Hunter Detection Mix was added to each well, and the plate was then incubated at room temperature in the dark for 1 hour. Well luminescence was measured on Perkin Elmer's Envision.
# as §1
# • DMEM Medium, (Invitrogen 11965) • F12 Medium, (Invitrogen 11765) • Heat Inactivated Fetal Bovine Serum, (Invitrogen 10082147) • Non Essential Amino Acids 100× (Invitrogen 11140-050) • HEPES (pH 7.3) 1M, (Invitrogen 15630-080) • Sodium Pyruvate 100× (Invitrogen 11360-070) • Penicillin Streptomycin, (Invitrogen 15640) • Trypsin 0.25% EDTA (Invitrogen 25200056) • DPBS without Calcium/Magnesium (Invitrogen 14190-136) • DMSO Dry (Sigma D2650) • DAMGO OPRMu1 Agonist MW513.19 (Sigma E7384-5MG) • B-Funaltrexamine Hydrochloride OPRM1 Antagonist MW (SIGMA 0003-2MG) • PathHunter Cell Plating 5 Reagent (Discover X 93-0563R5A) • Corning 3750 Standard 384 well white plate with lid.
# PathHunter Detection Mix (DiscoverX 93-0001): 1 part Galacton Star/5 parts Emerald II/19 parts PH Cell Assay Buffer.
Structure (SMILES),pIC50 [1],pIC50 (mu opioid receptor (MOR)),Selectivity (MOR/KOR) [1]
CCc1cc(F)c2nc(N3CCN(C(=O)[C@@H]4C[C@@H](O)CN4C)C[C@H]3C)c(-c3nc(C)no3)c(C)c2c1 [Compound 160],7.00 to 8.00,< 6.00,+++ (between 100- to 1000-fold selective)
"Cc1noc(-c2c(N3CCN(CC4CCOCC4)C[C@H]3C)nc3c(F)cc(Cl)cc3c2C)n1 [Compound 50, (R)-5-(6-chloro-8-fluoro-4-methyl-2-(2-methyl-4-((tetrahydro-2H-pyran-4-yl)methyl)piperazin-1-yl)quinolin-3-yl)-3-methyl-1,2,4-oxadiazole]",≤ 7.00,< 6.00,++ (between 10- and 100-fold selectivity)
CCc1cc(F)c2nc(N3CCC(OCCN4CCCC4)CC3)c(-c3nc(C)no3)c(C)c2c1 [Compound 187],7.00 to 8.00,< 6.00,+++ (between 100- to 1000-fold selective)
CCc1cc(F)c2nc(N3CCC(N[C@@H]4CCOC4)CC3)c(-c3cc(C(F)(F)F)n(C)n3)c(C)c2c1 [Compound 85],7.00 to 8.00,< 6.00,+++ (between 100- to 1000-fold selective)
CCc1cc(F)c2nc(N3CCN(CC4(O)CCOCC4)C[C@H]3C)c(-c3nc(C)no3)c(C)c2c1 [Compound 206],8.00 to 9.00,< 6.00,++++ (more than 1000-fold selectivity over MOR)
CCc1cc(F)c2nc(N3CCN(C(=O)[C@@H](C(C)C)N4CCCC4)C[C@H]3C)c(-c3nc(C)no3)c(C)c2c1 [Compound 148],8.00 to 9.00,< 6.00,+++ (between 100- to 1000-fold selective)
"CCc1cc(F)c2nc(N3CCC(N[C@H]4CCCC(F)(F)C4)CC3)c(-c3ccn(C)n3)c(C)c2c1 [Compound 73, (S)—N-(3,3-difluorocyclohexyl)-1-(6-ethyl-8-fluoro-4-methyl-3-(1-methyl-1H-pyrazol-3-yl)quinolin-2-yl)piperidin-4-amine]",8.00 to 9.00,6.00 to 7.00,++ (between 10- and 100-fold selectivity)
CCc1cc(-c2ccnn2C)c2nc(N3CCN(CC4CCOCC4)C[C@H]3C)c(-c3ccn(C)n3)c(C)c2c1 [Compound 62],8.00 to 9.00,6.00 to 7.00,+++ (between 100- to 1000-fold selective)
CCc1cc(-c2ccnn2C)c2nc(N3CCC(NCC4CC(F)(F)C4)CC3)c(-c3ccn(C)n3)c(C)c2c1 [Compound 91],8.00 to 9.00,7.00 to 8.00,++ (between 10- and 100-fold selectivity)

# The next lines start with results.
pIC50 [1],pIC50 (mu opioid receptor (MOR)),Structure (SMILES),Selectivity (MOR/KOR) [1]
8.00 to 9.00,7.00 to 8.00,"CCc1cc(-c2ccnn2C)c2nc(N3CC[C@@H](NC4CCOCC4)[C@@H](F)C3)c(-c3ccn(C)n3)c(C)c2c1 [Compound 15, (3S,4R)-1-(6-ethyl-4-methyl-3-(1-methyl-1H-pyrazol-3-yl)-8-(1-methyl-1H-pyrazol-5-yl)quinolin-2-yl)-3-fluoro-N-(tetrahydro-2H-pyran-4-yl)piperidin-4-amine]",++ (between 10- and 100-fold selectivity)
> 9.00,6.00 to 7.00,CCc1cc(F)c2nc(N3CC[C@@H](N[C@@H]4CCOC4)C[C@H]3C)c(-c3cc(C)no3)c(C)c2c1 [Compound 137],++++ (more than 1000-fold selectivity over MOR)
8.00 to 9.00,< 6.00,"CCc1cc(F)c2nc(N3CCN(C(=O)[C@H]4CC(F)(F)CCN4C)C[C@H]3C)c(-c3nc(C)no3)c(C)c2c1 [Compound 205, ((R)-4,4-difluoro-1-methylpiperidin-2-yl)((R)-4-(6-ethyl-8-fluoro-4-methyl-3-(3-methyl-1,2,4-oxadiazol-5-yl)quinolin-2-yl)-3-methylpiperazin-1-yl)methanone]",+++ (between 100- to 1000-fold selective)
8.00 to 9.00,6.00 to 7.00,CCc1cc(F)c2nc(N3CCN(C(=O)CN4CCCC4)C[C@H]3C)c(-c3ccn(C)n3)c(C)c2c1 [Compound 173],+++ (between 100- to 1000-fold selective)
8.00 to 9.00,< 6.00,CCc1cc(F)c2nc(N3CCN(C(=O)[C@H](CO)N(C)C)C[C@H]3C)c(-c3nc(C)no3)c(C)c2c1 [Compound 162],+++ (between 100- to 1000-fold selective)
8.00 to 9.00,6.00 to 7.00,CCc1cc(F)c2nc(N3CCN(C(=O)CCN4CCCC4)C[C@H]3C)c(-c3nc(C)no3)c(C)c2c1 [Compound 190],++ (between 10- and 100-fold selectivity)
8.00 to 9.00,< 6.00,CCc1cc(-c2ccn(C)n2)c2nc(N3CCC(NC4CC(F)(F)C4)CC3)c(-c3nc(C)no3)c(C)c2c1 [Compound 103],+++ (between 100- to 1000-fold selective)
8.00 to 9.00,< 6.00,CCc1cc(F)c2nc(N3CCN(C(=O)[C@H]4CCCN4C)C[C@H]3C)c(-c3nc(C)no3)c(C)c2c1 [Compound 183],++++ (more than 1000-fold selectivity over MOR)
> 9.00,6.00 to 7.00,CCc1cc(F)c2nc(N3CC[C@H](N[C@@H]4CCOC4)C[C@H]3C)c(-c3ccn(C)n3)c(C)c2c1 [Compound 118],++++ (more than 1000-fold selectivity over MOR)
